From paper PMC4973850, “Molecular structure‐function relationship of dietary polyphenols for inhibiting VEGF‐induced VEGFR‐2 activity” (Molecular Nutrition & Food Research, 2015)

Biological target: T1, VEGF (human recombinant VEGFA165); VEGF‐induced VEGFR‐2 activation in HUVECs (Homo sapiens, UniProt P15692)
T1 construct: purchased R&D Systems, Abingdon, UK
T1 sequence (P15692 1-191 isoform P15692-4): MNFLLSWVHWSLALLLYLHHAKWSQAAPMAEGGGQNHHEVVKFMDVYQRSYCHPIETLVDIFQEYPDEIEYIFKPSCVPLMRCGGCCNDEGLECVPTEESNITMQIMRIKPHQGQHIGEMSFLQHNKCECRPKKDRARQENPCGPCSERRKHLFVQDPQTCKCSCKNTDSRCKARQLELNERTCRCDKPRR
Experiment: Inhibition of VEGF‐induced VEGFR‐2 phosphorylation in HUVECs after pre‐incubating VEGF with polyphenol (Phospho‐VEGFR‐2 Tyr1175 ELISA);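 further: sandwich ELISA of VEGFR-2 phosphorylated at Tyr1175 in lysates of confluent HUVECs, with VEGF alone and DMSO vehicle (≤0.1%) as control incubations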
Type: cell-based
Conditions: for Inhibition (%): HUVECs; for IC50 (μM) / IC50: VEGF 25 ng/mL pre‐incubated 5 min with polyphenol, then HUVECs 5 min, phospho‐VEGFR‐2 ELISA, 95% confidence intervals in parentheses

O=c1c(O)c(-c2ccccc2)oc2cc(O)cc(O)c12 [Galangin]
Inhibition (%) (at 50 μM polyphenol): 85%

O=c1cc(-c2ccccc2)oc2cc(O)ccc12 [7‐hydroxyflavone]
Inhibition (%) (at 100 μM polyphenol): Ineffective (100 μM)

O=c1cc(-c2ccc(O)c(O)c2)oc2cc(O)cc(O)c12 [Luteolin]
IC50 (μM): 7.46 (6.592–8.446) μM

C[C@@H]1O[C@@H](Oc2c(-c3ccc(O)c(O)c3)oc3cc(O)cc(O)c3c2=O)[C@H](O)[C@H](O)[C@H]1O [Quercitrin]
Inhibition (%) (at 50 μM polyphenol): Ineffective | Inhibition (%) (at 50 μM polyphenol, listed as quercitrin): completely ineffective

Oc1cc(O)c2c(c1)O[C@H](c1cc(O)c(O)c(O)c1)[C@H](O)C2 [EGC, epigallocatechin]
IC50 (μM): 42.9 (36.96–49.97) μM

Oc1cc(O)c2cc(O)c(-c3ccc(O)c(O)c3)[o+]c2c1 [Cyanidin]
IC50: 1050 nM | IC50 (μM): 1.053 (0.764–1.453) μM | log IC50 (datapoint of Fig. 3B): 0.022 | fold lower IC50 compared with (+)‐catechin (ratio of IC50 values): 200 fold

Oc1cc(O)c2c(c1)O[C@H](c1ccc(O)c(O)c1)[C@H](O)C2 [(−)‐Epicatechin]
Inhibition (%) (at 200 μM polyphenol (highest concentration tested)): Ineffective (200 μM) | Inhibition (%) (at 200 μM polyphenol (highest concentration tested), listed as (−)‐epicatechin): not an inhibitor | Inhibition (%) (at 200 μM polyphenol (highest concentration tested), listed as epicatechin): ineffective

COc1ccc(-c2cc(=O)c3c(OC)c(OC)c(OC)cc3o2)cc1OC [Sinensetin]
Inhibition (%) (at 100 μM polyphenol): Ineffective (100 μM) | Inhibition (%) (at 100 μM polyphenol, listed as sinensetin): inhefective

O=c1c(O)c(-c2ccc(O)c(O)c2)oc2cc(O)c(O)c(O)c12 [Quercetagetin]
IC50 (μM): 0.096 (0.083–0.109) μM | fold more potent VEGF inhibitor than quercetin (ratio of IC50 values): sevenfold

O=c1c(-c2ccc(O)c(O)c2)coc2cc(O)cc(O)c12 [Orobol]
IC50 (μM): 3.311 (3.047–3.598) μM | IC50 (listed as orobol): 3310 nM | fold lower IC50 compared with luteolin (ratio of IC50 values): 2 fold

O=c1c(O)c(-c2ccc(O)cc2O)oc2cc(O)cc(O)c12 [Morin]
IC50 (μM): 1.482 (1.357–1.618) μM | fold higher IC50 than quercetin (ratio of IC50 values): about 2 fold

O=C(O)c1cc(O)c(O)c(O)c1 [Gallic acid]
Inhibition (%) (at 50 μM polyphenol): 32%

O=C(O[C@@H]1Cc2c(O)cc(O)cc2O[C@@H]1c1cc(O)c(O)c(O)c1)c1cc(O)c(O)c(O)c1 [EGCG, epigallocatechin gallate]
IC50 (μM): 0.088 (0.078–0.100) μM | fold lower IC50 than ECG (ratio of IC50 values): 2 fold

O=C(CCc1ccc(O)cc1)c1c(O)cc(O)cc1O[C@@H]1O[C@H](CO)[C@@H](O)[C@H](O)[C@H]1O [Phloridzin]
Inhibition (%) (at 50 μM polyphenol): Ineffective | Inhibition (%) (at 50 μM polyphenol, listed as phloridzin): completely ineffective

O=C1c2c(O)cc(O)cc2O[C@H](c2ccc(O)c(O)c2)[C@H]1O [Taxifolin]
Inhibition (%) (at 100 μM polyphenol): 12.3 (100 μM) %

O=c1cc(-c2ccccc2)oc2cc(O)cc(O)c12 [Chrysin]
Inhibition (%) (at 100 μM polyphenol): 58.6 (100 μM) %

O=c1c(O)c(-c2ccccc2)oc2ccccc12 [3‐hydroxyflavone]
Inhibition (%) (at 100 μM polyphenol): 52.8 (100 μM) %

OC[C@H]1O[C@@H](Oc2cc(O)cc(/C=C/c3ccc(O)cc3)c2)[C@H](O)[C@@H](O)[C@@H]1O [Piceid]
Inhibition (%) (at 50 μM polyphenol): 28%

O=C(/C=C/c1ccc(O)c(O)c1)O[C@@H]1C[C@](O)(C(=O)O)C[C@@H](O)[C@H]1O [Chlorogenic acid]
Inhibition (%) (at 50 μM polyphenol): Ineffective

COC(=O)c1cc(O)c(O)c(O)c1 [Methyl gallate]
Inhibition (%) (at 100 μM polyphenol): Ineffective (100 μM)

O=c1c(O[C@@H]2O[C@H](CO)[C@H](O)[C@H](O)[C@H]2O)c(-c2ccc(O)c(O)c2)oc2cc(O)cc(O)c12 [Hyperoside]
Inhibition (%) (at 50 μM polyphenol): Ineffective | Inhibition (%) (at 50 μM polyphenol, listed as hyperoside): completely ineffective

O=C1C[C@@H](c2ccc(O)cc2)Oc2cc(O)cc(O)c21 [Naringenin]
Inhibition (%) (at 100 μM polyphenol): 88.5 (100 μM) %

O=c1cc(-c2ccccc2)oc2ccccc12 [Flavone]
Inhibition (%) (at 100 μM polyphenol): Ineffective (100 μM) | Inhibition (%) (at 100 μM polyphenol, listed as flavone): ineffective

O=C(O[C@@H]1Cc2c(O)cc(O)cc2O[C@@H]1c1ccc(O)c(O)c1)c1cc(O)c(O)c(O)c1 [ECG, epicatechin gallate]
IC50 (μM): 0.16 (0.150–0.183) μM

O=c1c(O)c(-c2cc(O)c(O)c(O)c2)oc2cc(O)cc(O)c12 [Myricetin]
IC50 (μM): 0.121(0.102–0.144) μM | fold lower IC50 than EGC (ratio of IC50 values): > 300 fold

Oc1cc(O)c2c(c1)O[C@H](c1ccc(O)c(O)c1)[C@@H](O)C2 [(+)‐Catechin]
IC50 (μM): 214.7 (178. 2–258.7) μM | IC50 (listed as (+)‐catechin): 215000 nM

O=C(O)/C=C/c1ccc(O)c(O)c1 [Caffeic acid]
Inhibition (%) (at 50 μM polyphenol): Ineffective

COc1cc(-c2oc3cc(O)cc(O)c3c(=O)c2O)ccc1O [Isorhamnetin]
IC50 (μM): 9.053 (7.676–10.68) μM | fold higher IC50 than quercetin (ratio of IC50 values): 12 fold

O=c1c(O)c(-c2ccc(O)c(O)c2)oc2cc(O)cc(O)c12 [Quercetin]
IC50 (μM): 0.754 (0.674–0.842) μM | IC50 (listed as quercetin): 750 nM | fold lower IC50 compared with (+)‐catechin (ratio of IC50 values): > 250 fold | fold lower IC50 compared with luteolin (ratio of IC50 values): 10 fold

O=c1c(O)c(-c2ccc(O)cc2)oc2cc(O)cc(O)c12 [Kaempferol]
IC50 (μM): 9.341 (7.749–11.26) μM

O=c1c(O[C@@H]2O[C@H](CO)[C@@H](O)[C@H](O)[C@H]2O)c(-c2ccc(O)c(O)c2)oc2cc(O)cc(O)c12 [Hirsutrin]
Inhibition (%) (at 50 μM polyphenol): Ineffective | Inhibition (%) (at 50 μM polyphenol, listed as hirsutrin): completely ineffective

O=c1cc(-c2ccc(O)c(O)c2)oc2c(O)c(O)ccc12 [3′,4′,7,8‐tetrahydroxyflavone]
Inhibition (%) (at 100 μM polyphenol): 63.2 (100 μM) %

O=C1C[C@@H](c2ccc(O)c(O)c2)Oc2cc(O)cc(O)c21 [Eriodictyol]
Inhibition (%) (at 50 μM polyphenol): 20%

O=C1c2ccc(O)cc2O[C@H](c2cc(O)c(O)c(O)c2)[C@H]1O [(+)‐Dihydrorobinetin]
Inhibition (%) (at 50 μM polyphenol): 66%

C[C@@H]1O[C@@H](OC[C@H]2O[C@@H](Oc3c(-c4ccc(O)c(O)c4)oc4cc(O)cc(O)c4c3=O)[C@H](O)[C@@H](O)[C@@H]2O)[C@H](O)[C@H](O)[C@H]1O [Rutin]
Inhibition (%) (at 50 μM polyphenol): Ineffective | Inhibition (%) (at 50 μM polyphenol, listed as rutin): completely ineffective

O=c1c(-c2ccc(O)cc2)coc2cc(O)cc(O)c12 [Genistein]
Inhibition (%) (at 50 μM polyphenol): 22%

COc1cc(O)c2c(=O)c(O)c(-c3ccc(O)c(O)c3)oc2c1 [Rhamnetin]
IC50 (μM): 0.547 (0.527–0.568) μM

COc1ccc(-c2oc3cc(O)cc(O)c3c(=O)c2O)cc1O [Tamarixetin]
Inhibition (%) (at 100 μM polyphenol): 100 (100 μM) %
